Experimental data: the supplement of paper PMC10627819

Key:
S. pneumoniae D39V = assay: fitness (endpoint OD595 vs no drug) (fraction); higher = more growth
Outline: (§1)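 At 37 °C, bacteria in TSB, LB Lennox or CY were grown in 384-well plates from a starting OD595 of 0.01. OD595 was measured every 30 min for 14 h, with the first reading used as background. Fitness is the optical density at the switch to stationary phase as a fraction of the robust mean of no-drug control wells, capped at 1.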

B. subtilis 168 = assay: as above
Outline: as §1
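Also: OD595 on entry to stationary phase over no-drug wells; at most 1.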

CN(C)[C@@H]1C(O)=C(C(N)=O)C(=O)[C@@]2(O)C(O)=C3C(=O)c4c(O)ccc(Cl)c4[C@@](C)(O)[C@H]3C[C@@H]12 [Chlortetracycline] + CN(C)C(=O)C(CCN1CCC(O)(c2ccc(Cl)cc2)CC1)(c1ccccc1)c1ccccc1 [Loperamide]
fitness (S. pneumoniae D39V; first compound 0.012 µg/mL, partner 17.14 µg/mL): 0.967 | fitness (S. pneumoniae D39V; first compound 0.012 µg/mL, partner 34.28 µg/mL): 0.899 | fitness (S. pneumoniae D39V; first compound 0.012 µg/mL, partner 68.57 µg/mL, one replicate): 0.908 | fitness (S. pneumoniae D39V; first compound 0.024 µg/mL, partner 17.14 µg/mL): 0.926 | fitness (S. pneumoniae D39V; first compound 0.024 µg/mL, partner 34.28 µg/mL): 0.909 | fitness (S. pneumoniae D39V; first compound 0.024 µg/mL, partner 68.57 µg/mL, one replicate): 0.92 | fitness (S. pneumoniae D39V; first compound 0.048 µg/mL, partner 17.14 µg/mL): 0.829 | fitness (S. pneumoniae D39V; first compound 0.048 µg/mL, partner 34.28 µg/mL): 0.844 | fitness (S. pneumoniae D39V; first compound 0.048 µg/mL, partner 68.57 µg/mL, one replicate): 0.8 | fitness (S. pneumoniae D39V; first compound 0.375 µg/mL, partner 20 µg/mL): 0.0446 | fitness (S. pneumoniae D39V; first compound 0.375 µg/mL, partner 40 µg/mL): 0.0664 | fitness (S. pneumoniae D39V; first compound 0.375 µg/mL, partner 80 µg/mL): 0.065 | fitness (S. pneumoniae D39V; first compound 0.75 µg/mL, partner 20 µg/mL): 0.0563 | fitness (S. pneumoniae D39V; first compound 0.75 µg/mL, partner 40 µg/mL): 0.0762 | fitness (S. pneumoniae D39V; first compound 0.75 µg/mL, partner 80 µg/mL): 0.0821 | fitness (S. pneumoniae D39V; first compound 1.5 µg/mL, partner 20 µg/mL): 0.04 | fitness (S. pneumoniae D39V; first compound 1.5 µg/mL, partner 40 µg/mL): 0.0491 | fitness (S. pneumoniae D39V; first compound 1.5 µg/mL, partner 80 µg/mL): 0.0392 | fitness (B. subtilis 168; first compound 0.0475 µg/mL, partner 50 µg/mL): 0.0353 | fitness (B. subtilis 168; first compound 0.0475 µg/mL, partner 100 µg/mL): 0.0088 | fitness (B. subtilis 168; first compound 0.095 µg/mL, partner 25 µg/mL): 0.0158 | fitness (B. subtilis 168; first compound 0.095 µg/mL, partner 50 µg/mL): 0.0367 | fitness (B. subtilis 168; first compound 0.095 µg/mL, partner 100 µg/mL): 0.0243 | fitness (B. subtilis 168; first compound 0.19 µg/mL, partner 25 µg/mL): 0.0386 | fitness (B. subtilis 168; first compound 0.19 µg/mL, partner 50 µg/mL): 0.05 | fitness (B. subtilis 168; first compound 0.19 µg/mL, partner 100 µg/mL): 0.0328

CN(C)[C@@H]1C(O)=C(C(N)=O)C(=O)[C@@]2(O)C(O)=C3C(=O)c4c(O)ccc(Cl)c4[C@@](C)(O)[C@H]3C[C@@H]12 [Chlortetracycline] + CN(C)c1cc(NC(=O)CNC(C)(C)C)c(O)c2c1C[C@H]1C[C@H]3[C@H](N(C)C)C(O)=C(C(N)=O)C(=O)[C@@]3(O)C(O)=C1C2=O [Tigecycline]
fitness (S. pneumoniae D39V; first compound 0.012 µg/mL, partner 0.65 µg/mL): 0.943 | fitness (S. pneumoniae D39V; first compound 0.012 µg/mL, partner 1.3 µg/mL): 0.98 | fitness (S. pneumoniae D39V; first compound 0.012 µg/mL, partner 2.6 µg/mL): 0.866 | fitness (S. pneumoniae D39V; first compound 0.024 µg/mL, partner 0.65 µg/mL): 0.949 | fitness (S. pneumoniae D39V; first compound 0.024 µg/mL, partner 1.3 µg/mL): 0.909 | fitness (S. pneumoniae D39V; first compound 0.024 µg/mL, partner 2.6 µg/mL): 0.862 | fitness (S. pneumoniae D39V; first compound 0.048 µg/mL, partner 0.65 µg/mL): 0.867 | fitness (S. pneumoniae D39V; first compound 0.048 µg/mL, partner 1.3 µg/mL): 0.814 | fitness (S. pneumoniae D39V; first compound 0.048 µg/mL, partner 2.6 µg/mL): 0.815 | fitness (S. pneumoniae D39V; first compound 0.375 µg/mL, partner 0.325 µg/mL): 0.0315 | fitness (S. pneumoniae D39V; first compound 0.375 µg/mL, partner 0.65 µg/mL): 0.0403 | fitness (S. pneumoniae D39V; first compound 0.375 µg/mL, partner 1.3 µg/mL): 0.0368 | fitness (S. pneumoniae D39V; first compound 0.75 µg/mL, partner 0.325 µg/mL): 0.0625 | fitness (S. pneumoniae D39V; first compound 0.75 µg/mL, partner 0.65 µg/mL): 0.0555 | fitness (S. pneumoniae D39V; first compound 0.75 µg/mL, partner 1.3 µg/mL): 0.0691 | fitness (S. pneumoniae D39V; first compound 1.5 µg/mL, partner 0.325 µg/mL): 0.0404 | fitness (S. pneumoniae D39V; first compound 1.5 µg/mL, partner 0.65 µg/mL): 0.0304 | fitness (S. pneumoniae D39V; first compound 1.5 µg/mL, partner 1.3 µg/mL): 0.0788 | fitness (B. subtilis 168; first compound 0.0475 µg/mL, partner 0.039 µg/mL): 0.924 | fitness (B. subtilis 168; first compound 0.0475 µg/mL, partner 0.078 µg/mL): 0.873 | fitness (B. subtilis 168; first compound 0.0475 µg/mL, partner 0.125 µg/mL, one replicate): 0.996 | fitness (B. subtilis 168; first compound 0.0475 µg/mL, partner 0.156 µg/mL): 0.823 | fitness (B. subtilis 168; first compound 0.0475 µg/mL, partner 0.25 µg/mL, one replicate): 0.915 | fitness (B. subtilis 168; first compound 0.0475 µg/mL, partner 0.5 µg/mL, one replicate): 0.933 | fitness (B. subtilis 168; first compound 0.095 µg/mL, partner 0.039 µg/mL): 0.828 | fitness (B. subtilis 168; first compound 0.095 µg/mL, partner 0.078 µg/mL): 0.781 | fitness (B. subtilis 168; first compound 0.095 µg/mL, partner 0.125 µg/mL, one replicate): 0.974 | fitness (B. subtilis 168; first compound 0.095 µg/mL, partner 0.156 µg/mL): 0.784 | fitness (B. subtilis 168; first compound 0.095 µg/mL, partner 0.25 µg/mL, one replicate): 0.874 | fitness (B. subtilis 168; first compound 0.095 µg/mL, partner 0.5 µg/mL, one replicate): 0.879 | fitness (B. subtilis 168; first compound 0.19 µg/mL, partner 0.039 µg/mL): 0.651 | fitness (B. subtilis 168; first compound 0.19 µg/mL, partner 0.078 µg/mL): 0.605 | fitness (B. subtilis 168; first compound 0.19 µg/mL, partner 0.125 µg/mL, one replicate): 0.827 | fitness (B. subtilis 168; first compound 0.19 µg/mL, partner 0.156 µg/mL): 0.5 | fitness (B. subtilis 168; first compound 0.19 µg/mL, partner 0.25 µg/mL, one replicate): 0.763 | fitness (B. subtilis 168; first compound 0.19 µg/mL, partner 0.5 µg/mL, one replicate): 0.84
